{"source": "patent US20240343699A1", "about": "“DERIVATIVES OF SUBSTITUTED MORPHOLINES AND USES THEREOF” (Supernus Pharmaceuticals, Inc., priority 2023, published 2024)", "key": {"[1]": {"settings": "80 mg/kg PO"}, "[2]": {"assay": "Metabolic stability in rat liver S9", "format": "in vitro ADME, Sprague Dawley rat", "set-up": "half-life: dose or concentration left out as unconfirmed", "method": "(§1) Incubation Buffer (PBK): 50 mM potassium phosphate buffer was prepared from 1 M potassium phosphate buffer, pH 7.2. […] The dilution of […] was prepared by 90% methanol/10% DMSO, then 10 μM working solutions were prepared by diluting the 0.1 mM intermediates with 50 mM PBK. […] Prior to use, the stock solutions were brought to room temperature and thoroughly mixed. […] Cofactors Solutions: the mixture of cofactors solution was made at 10 mM of NADPH and 10 mM of UDPGA in PBK buffer.\n(§2) The incubation was carried out in 96-well plates. The liver S9 working solutions were added to 96-well plates (80 μL/well) in duplicate. […] Reaction was initiated by adding cofactor mixture 10 μL/well. The plates were incubated at 37° C. in a water bath with shaking. […] The final organic solvent content in the incubation was ≤1%.\n(§3) At specified time points, i.e., 5, 10, 20, 30 and 60 minutes, NCF60 (without adding NADPH (Nicotinamide-adenine dinucleotide phosphate, reduced form) and UDPGA (Uridine 5′-diphosphoglucuronic acid trisodium salt) replaced with PBK buffer reaction was stopped by adding three volumes of stop solution. The time zero (To) samples were prepared by adding three volumes of stop solution to liver S9 samples, followed by addition of test article or control, and cofactor mixture solution 10 μL/well.\n(§4) Subsequently, 100 μL of supernatant.\n(§5) Positive controls: 7-ethoxycoumarin and 7-hydroxycoumarin."}, "[3]": {"assay": "Protein binding in CD-1 mouse plasma (equilibrium dialysis)", "settings": "dialysis conditions; no binding reported"}, "[4]": {"assay": "Metabolic stability in human liver S9", "format": "in vitro ADME", "settings": "human liver S9, 1 μM", "method": "as §1, §2, §3, §4, §5"}, "[5]": {"assay": "Cellular and nuclear receptor functional assays", "format": "cell-based", "settings": "human recombinant (CHO cells)", "method": "A study was conducted to test 5 compounds in cellular and nuclear receptor functional and enzyme and uptake assays.\nThe results are expressed as a percent of control agonist response or inverse agonist response and as a percent inhibition of control agonist response\nThe EC50 values (concentration producing a half-maximal response) and IC50 values (concentration causing a half-maximal inhibition of the control agonist response) were determined by non-linear regression analysis of the concentration-response curves generated with mean replicate values using Hill equation curve fitting […]\nwhere Y=response, A=left asymptote of the curve, D=right asymptote of the curve, C=compound concentration, and C50=EC50 or IC50, and nH=slope factor. This analysis was performed using software developed at Cerep (Hill software) and validated by comparison with data generated by the commercial software SigmaPlot® 4.0 for Windows® (© 1997 by SPSS Inc.).\nFor the antagonists, the apparent dissociation constants (KB) were calculated using the modified Cheng Prusoff equation where A=concentration of reference agonist in the assay, and EC50A=EC50 value of the reference agonist.\nIn Vitro Pharmacology. Results showing an inhibition (or stimulation for assays run in basal conditions) higher than 50% were considered to represent significant effects of the test compounds. Results showing an inhibition (or stimulation) between 25% and 50% are indicative of weak to moderate effects. Results showing an inhibition (or stimulation) lower than 25% were not considered significant and mostly attributable to variability of the signal around the control level."}, "hNav1.5": {"target": "T1, hNav1.5 (Homo sapiens, UniProt Q14524)", "T1 construct": "CYL6004QP2DR", "T1 sequence (Q14524 whole entry)": "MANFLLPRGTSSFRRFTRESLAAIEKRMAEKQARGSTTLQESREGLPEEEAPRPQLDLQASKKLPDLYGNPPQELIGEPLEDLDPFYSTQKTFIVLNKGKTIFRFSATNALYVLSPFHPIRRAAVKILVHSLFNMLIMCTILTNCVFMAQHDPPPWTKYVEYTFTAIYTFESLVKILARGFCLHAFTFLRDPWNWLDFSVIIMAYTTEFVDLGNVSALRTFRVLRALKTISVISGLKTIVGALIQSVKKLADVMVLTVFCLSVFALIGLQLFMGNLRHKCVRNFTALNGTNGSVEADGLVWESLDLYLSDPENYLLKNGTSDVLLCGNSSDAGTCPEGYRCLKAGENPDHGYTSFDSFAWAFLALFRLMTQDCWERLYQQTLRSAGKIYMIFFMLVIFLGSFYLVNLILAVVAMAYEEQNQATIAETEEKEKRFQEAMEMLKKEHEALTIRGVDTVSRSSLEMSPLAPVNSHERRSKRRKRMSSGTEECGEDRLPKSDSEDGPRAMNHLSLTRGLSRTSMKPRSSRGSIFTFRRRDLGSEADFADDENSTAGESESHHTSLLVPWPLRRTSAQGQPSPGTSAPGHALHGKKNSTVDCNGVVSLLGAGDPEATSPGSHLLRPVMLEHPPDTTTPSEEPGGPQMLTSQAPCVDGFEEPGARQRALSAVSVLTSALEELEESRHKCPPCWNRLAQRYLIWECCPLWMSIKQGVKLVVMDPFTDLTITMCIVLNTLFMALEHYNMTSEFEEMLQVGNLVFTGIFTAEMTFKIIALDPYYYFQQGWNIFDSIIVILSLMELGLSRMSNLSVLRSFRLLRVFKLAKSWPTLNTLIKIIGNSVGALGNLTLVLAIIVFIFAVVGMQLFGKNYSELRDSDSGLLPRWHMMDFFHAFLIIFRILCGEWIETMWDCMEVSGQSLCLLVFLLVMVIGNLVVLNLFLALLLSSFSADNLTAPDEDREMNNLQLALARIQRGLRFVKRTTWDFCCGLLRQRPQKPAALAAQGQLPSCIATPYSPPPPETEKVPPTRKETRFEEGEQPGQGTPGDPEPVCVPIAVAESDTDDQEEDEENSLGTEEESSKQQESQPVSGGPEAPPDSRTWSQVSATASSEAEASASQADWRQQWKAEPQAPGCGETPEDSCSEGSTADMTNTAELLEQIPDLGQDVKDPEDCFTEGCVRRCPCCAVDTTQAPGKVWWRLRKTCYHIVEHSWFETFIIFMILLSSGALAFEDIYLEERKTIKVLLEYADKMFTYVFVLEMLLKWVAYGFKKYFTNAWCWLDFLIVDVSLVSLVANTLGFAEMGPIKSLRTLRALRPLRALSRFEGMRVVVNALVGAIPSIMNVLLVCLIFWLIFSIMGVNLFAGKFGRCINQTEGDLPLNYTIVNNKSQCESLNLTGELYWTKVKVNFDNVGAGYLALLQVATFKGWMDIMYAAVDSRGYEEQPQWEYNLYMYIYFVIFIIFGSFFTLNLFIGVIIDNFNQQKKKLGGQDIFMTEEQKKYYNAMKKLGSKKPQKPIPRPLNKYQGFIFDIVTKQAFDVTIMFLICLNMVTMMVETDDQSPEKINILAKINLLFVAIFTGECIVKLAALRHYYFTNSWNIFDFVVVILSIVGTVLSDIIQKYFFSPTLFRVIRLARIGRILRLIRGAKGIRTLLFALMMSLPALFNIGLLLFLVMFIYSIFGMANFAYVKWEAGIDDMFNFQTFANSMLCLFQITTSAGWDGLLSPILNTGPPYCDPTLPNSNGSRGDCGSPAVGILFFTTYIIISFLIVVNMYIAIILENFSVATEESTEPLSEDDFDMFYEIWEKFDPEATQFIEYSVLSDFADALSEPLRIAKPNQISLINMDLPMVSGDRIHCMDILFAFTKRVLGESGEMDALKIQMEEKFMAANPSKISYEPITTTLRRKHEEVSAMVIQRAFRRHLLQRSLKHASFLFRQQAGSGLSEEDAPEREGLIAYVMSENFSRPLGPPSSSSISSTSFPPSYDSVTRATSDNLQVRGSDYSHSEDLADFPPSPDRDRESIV", "assay": "Nav1.5 human sodium ion channel cell based automated patch clamp assay (QPatch HT)", "settings": "Antagonist", "method": "Electrophysiological assays were conducted to profile five compounds for activities on the ion channel target using the QPatch HT electrophysiological platform.\nCYL6004QP2DR Nav1.5 Human Sodium Ion Channel Cell Based Automated Patch Clamp Assay. Cells were held at −120 mV for 100 ms, stepped to −130 mV for 100 ms, and stepped back to −120 mV for 100 ms to measure the leak current. Na channels exist in a) resting or closed state at −120 mV, b) a transient open state that inactivates to c) inactivated state at −10 mV. Na current inhibition within 1-2 ms of channel opening at −10 mV is open channel inhibition (pulse 1). […] Pulse 1 and 2 are used to investigate drug binding to the open state and inactivated state of the Na channels, respectively. Each concentration of compound was applied for 5 minutes.\nCurrent amplitudes more than 200 pA at the control stage were analyzed. The amplitude of the current was calculated by measuring the difference between the peak inward current on stepping to −10 mV (i.e. peak of the current) and remaining current at the end of the step. The current was assessed in vehicle control conditions and then at the end of each five (5) minute compound application."}, "[6]": {"assay": "Metabolic stability in dog liver S9", "format": "in vitro ADME, Beagle dog", "settings": "dog liver S9, 1 μM", "method": "as §1, §2, §3, §4, §5"}, "[7]": {"settings": "rat liver S9, 1 μM, NCF60 (no cofactors, 60 min)"}}, "note": "Values joined by “and” are separate entries in the source; they are usually repeats but may differ in a detail not shown here. Equal entries are not always repeated. Where two headings read alike, the source gives them in different places."}
{"smiles": "CCOc1ccccc1OC[C@@H]1CN(C(=O)OC(OC(=O)[C@@H](N)C(C)C)C(C)C)CCO1", "note": "(some centres unmarked) [COMPOUND B]", "values": [{"measurement": "Clinical observation (tolerability)", "setting": "[1]; beagle dogs", "result": "well tolerated"}, {"measurement": "plasma concentration of the analog itself", "setting": "[1]; LLOQ 3.0 ng/mL", "result": "mostly below the LLOQ"}, {"measurement": "half-life", "setting": "[2]; Sprague Dawley (rat), pH 7.2, rat, dog and human liver S9 incubations (summary over species), read-out: half-lives", "result": "4 to 12", "unit": "min"}, {"measurement": "half-life at 1 μM", "setting": "[2]; Sprague Dawley, pH 7.2, rat liver S9, 1 μM", "result": 4.09, "unit": "min"}, {"measurement": "microsomal CLint at 1 μM", "setting": "[2]; Sprague Dawley, pH 7.2, rat liver S9, 1 μM, read-out: CLint(LS9)", "result": 339, "unit": "µL/min/mg"}, {"measurement": "% Remaining", "setting": "[2]; rat liver S9, 1 μM, 0 min", "result": 100, "unit": "%"}, {"measurement": "Analyte Peak area/IS Peak area Mean × 100 (n = 2)", "setting": "[2]; rat liver S9, 1 μM, 0 min", "result": 7.71}, {"measurement": "% Remaining", "setting": "[2]; rat liver S9, 1 μM, 5 min", "result": 6.8, "unit": "%"}, {"measurement": "Analyte Peak area/IS Peak area Mean × 100 (n = 2)", "setting": "[2]; rat liver S9, 1 μM, 5 min", "result": 0.524}, {"measurement": "% Remaining", "setting": "[2]; rat liver S9, 1 μM, 10 min", "result": 4.6, "unit": "%"}, {"measurement": "Analyte Peak area/IS Peak area Mean × 100 (n = 2)", "setting": "[2]; rat liver S9, 1 μM, 10 min", "result": 0.351}, {"measurement": "% Remaining", "setting": "[2]; rat liver S9, 1 μM, 20 min", "result": 2.3, "unit": "%"}, {"measurement": "Analyte Peak area/IS Peak area Mean × 100 (n = 2)", "setting": "[2]; rat liver S9, 1 μM, 20 min", "result": 0.174}, {"measurement": "% Remaining", "setting": "[2]; rat liver S9, 1 μM, 30 min", "result": 0.2, "unit": "%"}, {"measurement": "Analyte Peak area/IS Peak area Mean × 100 (n = 2)", "setting": "[2]; rat liver S9, 1 μM, 30 min", "result": 0.019}, {"measurement": "% Remaining", "setting": "[2]; rat liver S9, 1 μM, 60 min", "result": "0.08% and 0.1%"}, {"measurement": "Analyte Peak area/IS Peak area Mean × 100 (n = 2)", "setting": "[2]; rat liver S9, 1 μM, 60 min", "result": 0.006}, {"measurement": "% Remaining", "setting": "[2]; [7]", "result": 0.4, "unit": "%"}, {"measurement": "Analyte Peak area/IS Peak area Mean × 100 (n = 2)", "setting": "[2]; [7]", "result": 0.029}, {"measurement": "stability in the mouse plasma", "setting": "[3]", "result": "instability"}, {"measurement": "% Remaining", "setting": "[4]; 0 min", "result": 100, "unit": "%"}, {"measurement": "Analyte Peak area/IS Peak area Mean × 100 (n = 2)", "setting": "[4]; 0 min", "result": 8.22}, {"measurement": "% Remaining", "setting": "[4]; 5 min", "result": 14, "unit": "%"}, {"measurement": "Analyte Peak area/IS Peak area Mean × 100 (n = 2)", "setting": "[4]; 5 min", "result": 1.12}, {"measurement": "% Remaining", "setting": "[4]; 10 min", "result": 12, "unit": "%"}, {"measurement": "Analyte Peak area/IS Peak area Mean × 100 (n = 2)", "setting": "[4]; 10 min", "result": 0.973}, {"measurement": "% Remaining", "setting": "[4]; 20 min", "result": 4.2, "unit": "%"}, {"measurement": "Analyte Peak area/IS Peak area Mean × 100 (n = 2)", "setting": "[4]; 20 min", "result": 0.342}, {"measurement": "% Remaining", "setting": "[4]; 30 min", "result": 1.6, "unit": "%"}, {"measurement": "Analyte Peak area/IS Peak area Mean × 100 (n = 2)", "setting": "[4]; 30 min", "result": 0.131}, {"measurement": "% Remaining", "setting": "[4]; 60 min", "result": "0.24% and 0.2%"}, {"measurement": "Analyte Peak area/IS Peak area Mean × 100 (n = 2)", "setting": "[4]; 60 min", "result": 0.020}, {"measurement": "% Remaining", "setting": "[4]; NCF60 (no cofactors, 60 min)", "result": 1.2, "unit": "%"}, {"measurement": "Analyte Peak area/IS Peak area Mean × 100 (n = 2)", "setting": "[4]; NCF60 (no cofactors, 60 min)", "result": 0.099}, {"measurement": "half-life at 1 μM", "setting": "[4]; pH 7.2", "result": 7.74, "unit": "min"}, {"measurement": "microsomal CLint at 1 μM", "setting": "[4]; pH 7.2, read-out: CLint(LS9)", "result": 179, "unit": "µL/min/mg"}, {"measurement": "Kb", "setting": "[5]; apparent dissociation constant, modified Cheng Prusoff equation, read-out: kB, 5-HT2B(h) (antagonist effect)", "result": 2.1, "unit": "µM"}, {"measurement": "IC50", "setting": "[5]; serotonin (30 nM), IP1, HTRF, read-out: IC50, 5-HT2B(h) (antagonist effect)", "result": 14, "unit": "µM"}, {"measurement": "IC50", "setting": "hNav1.5; Pulse 1 (open state), read-out: Estimated IC50 (Pulse 1)", "result": "> 100", "unit": "µM"}, {"measurement": "IC50", "setting": "hNav1.5; Pulse 2 (inactivated state), read-out: Estimated IC50 (Pulse 2)", "result": 7.6, "unit": "µM"}, {"measurement": "half-life at 1 μM", "setting": "[6]; Beagle, pH 7.2", "result": 7.3, "unit": "min"}, {"measurement": "microsomal CLint at 1 μM", "setting": "[6]; Beagle, pH 7.2, read-out: CLint(LS9)", "result": 190, "unit": "µL/min/mg"}, {"measurement": "% Remaining", "setting": "[6]; 0 min", "result": 100, "unit": "%"}, {"measurement": "Analyte Peak area/IS Peak area Mean × 100 (n = 2)", "setting": "[6]; 0 min", "result": 7.78}, {"measurement": "% Remaining", "setting": "[6]; 5 min", "result": 2.9, "unit": "%"}, {"measurement": "Analyte Peak area/IS Peak area Mean × 100 (n = 2)", "setting": "[6]; 5 min", "result": 0.226}, {"measurement": "% Remaining", "setting": "[6]; 10 min", "result": 4.0, "unit": "%"}, {"measurement": "Analyte Peak area/IS Peak area Mean × 100 (n = 2)", "setting": "[6]; 10 min", "result": 0.309}, {"measurement": "% Remaining", "setting": "[6]; 20 min", "result": 2.1, "unit": "%"}, {"measurement": "Analyte Peak area/IS Peak area Mean × 100 (n = 2)", "setting": "[6]; 20 min", "result": 0.166}, {"measurement": "% Remaining", "setting": "[6]; 30 min", "result": 0.5, "unit": "%"}, {"measurement": "Analyte Peak area/IS Peak area Mean × 100 (n = 2)", "setting": "[6]; 30 min", "result": 0.035}, {"measurement": "% Remaining", "setting": "[6]; 60 min", "result": "0.09% and 0.1%"}, {"measurement": "Analyte Peak area/IS Peak area Mean × 100 (n = 2)", "setting": "[6]; 60 min", "result": 0.007}, {"measurement": "% Remaining", "setting": "[6]; NCF60 (no cofactors, 60 min)", "result": 0.0, "unit": "%"}, {"measurement": "Analyte Peak area/IS Peak area Mean × 100 (n = 2)", "setting": "[6]; NCF60 (no cofactors, 60 min)", "result": 0.000}]}
